In patent publication US10076511B2, “Bisamide derivative of dicarboxylic acid as an agent for stimulating tissue regeneration and recovery of diminished tissue function” (TREAMID GmbH, priority 2015, dated 2018):

Columns and labels:
male rats = test: Morphological and functional state of spermatogenic tissue after Paclitaxel; format: in vivo, rat
Method: The latter was simulated by a single injection of cytostatic drug Paclitaxel (Mitotax, Dr. Reddy's, India) to male rats (3 months of age). The choice of the drug was due to the fact that it is one of the medications that damage the precursors of spermatogenesis—stem cells.
Paclitaxel was administered to the animals of the control and test groups once intravenously at the maximum tolerated dose of 7.6 mg/kg. Treamid was administered to the animals of the experimental groups intragastrically at a dose of 5 mg/kg in the form of a suspension in 2% starch mucus for 15 days a month after the administration of Paclitaxel. The control animals received an equivalent volume of the solvent (2% starch mucus), instead of the test compound.
Morphological and functional state of the spermatogenic tissue was assessed to obtain an additional confirmation of the efficiency to stimulate the formation of committed stem cells.
It was estimated by the following indices: the number of cells in the spermatogonial population, the average number of Sertoli cells, the degree of maturity of the spermatogenic layer, the number of Leydig cells, the endocrine activity of the testis, the total number of sperm cells per epididymis, and the percentage of motile sperm forms. For this, in euthanasia on Day 45, Day 65, and Day 90 of the experiment, the tail part of epididymis and testis were isolated at dissection. The epididymis of one testis was homogenized in a warm (37° C.) physiological saline, and the number of motile sperm forms was determined in the suspension of the epididymis cells. The total number of sperm cells per epididymis (TNS) was calculated by using a homogenized cell suspension of the second epididymis in a dosage amount of physiological saline using a leukocyte-count pipette and Goryaev chamber.
A morphological assay of the testes of rats was performed by fixation thereof in Carnoy's fluid and by preparing paraffin sections. Deparaffined sections of a thickness of 5 μm were stained with hematoxylin-eosin. The number of cells in the spermatogonial population, the number of Sertoli cells, and the number of Leydig cells were counted on the testis section, and the endocrine activity of Leydig cells was determined. The degree of maturity of the spermatogenic layer was calculated based on the count of Sertoli cells. The calculation was carried out according to the formula for the experimental groups: y=5.95-0.18x; for the group of intact animals: y=6.7-0.23x, where x is the average number of Sertoli cells in the cross-section of the convoluted seminiferous tubule, and y is the index characterizing the degree of maturity of the spermatogenic layer. When choosing the time for studies, the duration of spermatogenesis in rats was taken into account, which was one and a half months. The duration of 45 and 65 days after administration of Paclitaxel corresponds to the manifestation of effects on the spermatogonial cell population.
The criteria for stimulation of the process of regeneration of the testicular tissue were: an increase in the number of cells in the spermatogonial populations, the number of Sertoli cells, a decrease in the degree of maturity of the spermatogenic layer, and an increase in the productivity of spermatogenesis. The criterion of the functional activity of sperm cells is the percentage of their motile forms.

male C57BL/6 mice = test: Streptozotocin-induced pancreatic lesion model; format: in vivo, mouse; conditions: Day 28; Treamid 1 mg/kg
[1] = Day 45 after Paclitaxel, Treamid 5 mg/kg
[2] = Day 65 after Paclitaxel, Treamid 5 mg/kg
[3] = Day 90 after Paclitaxel, Treamid 5 mg/kg

O=C(CCCC(=O)NCCc1ncc[nH]1)NCCc1ncc[nH]1 [Treamid]
Number of motile sperm cells (%) (male rats; [1]): 71.57 ± 3.19 % | The average number of Sertoli cells (abs.) (male rats; [1]): 1.61 ± 0.03 abs. | The average number of spermatogonia (abs.) (male rats; [1]): 14.56 ± 0.19 abs. | The degree of maturity of the spermatogenic layer (standard units) (male rats; [1]): 5.66 ± 0.01 standard units | Total number of sperm cells (million) (male rats; [1]): 146.00 ± 9.53 million | growth of percentage of motile sperm forms in comparison with the control (male rats; Day 65): 32% | increase of productivity of spermatogenesis (TNS) in comparison with the control (male rats; Day 65): 43% | Endocrine activity of testes (male rats; [2]): 4.31 ± 0.24 | Number of Leydig cells (male rats; [2]): 9.48 ± 0.21 | Number of motile sperm cells (%) (male rats; [2]): 79.81 ± 1.61 % | The average number of Sertoli cells (abs.) (male rats; [2]): 2.30 ± 0.03 abs. | The average number of spermatogonia (abs.) (male rats; [2]): 13.07 ± 0.28 abs. | The degree of maturity of the spermatogenic layer (standard units) (male rats; [2]): 5.54 ± 0.00 standard units | Total number of sperm cells (million) (male rats; [2]): 145.20 ± 15.15 million | increase of productivity of spermatogenesis (TNS) in comparison with the control (male rats; Day 90): 46% | Endocrine activity (male rats; [3]): 4.74 ± 4.04 | Number of motile sperm cells (%) (male rats; [3]): 67.80 ± 1.14 % | The average number of Leydig cells (male rats; [3]): 9.93 ± 0.08 | The average number of Sertoli cells (abs.) (male rats; [3]): 2.10 ± 0.06 abs. | The average number of spermatogonia (abs.) (male rats; [3]): 14.43 ± 0.21 abs. | The degree of maturity of the spermatogenic layer (standard units) (male rats; [3]): 5.57 ± 0.01 standard units | Total number of sperm cells (million) (male rats; [3]): 186.20 ± 12.74 million | Total collagen (mg/ml) in the pancreas (male C57BL/6 mice): 41 ± 4 mg/mL | Type I collagen (ng/ml) in the pancreas (male C57BL/6 mice): 665 ± 55*• ng/ml
